Data: patent US6821954B2, “Compounds and uses thereof in treating bone disorders” (Auckland UniServices Limited, priority 1997, dated 2004)
Bridge positions count the residues as written; N and C are the ends. Ends that are not written are not given here. Peptide text beside a SMILES is read from it.

What was measured:
[1] = Catabolism of peptides in calvarial organ culture (pre-incubation, then test on osteoblast proliferation); format: in vitro ADME, mouse; details: for effect of pre-incubation for two hours on osteoblastic activity: pre-incubation in calvarial organ culture 2 hours; for effect of pre-incubation for two hours on osteoblastic activity / osteoblastic activity after pre-incubation for four or more hours: cell number or thymidine incorporation, FIG. 7; for osteoblastic activity after pre-incubation for four or more hours: pre-incubation in calvarial organ culture four or more hours; for ability to block amylin's stimulation of osteoblast proliferation after pre-incubation: pre-incubation with calvariae for six hours, FIG. 8
Method: To determine whether the various peptide fragments underwent significant catabolism in organ culture, they were incubated with calvariae before being added to osteoblast cultures. The organ cultures were set up using hemicalvariae from animals that had not be pretreated with ^45Ca. The fragments or vehicle were incubated with the calvariae for 2, 4, or 6 hours. Extracts of the media were removed then immediately added to osteoblast cultures for measurement of their effects on osteoblast proliferation, as described above.

neonatal mouse calvariae = experiment: Bone resorption in bone organ culture (45Ca release); format: cell-based; details: for effect on basal bone resorption: 10^−8 M, calcium release, FIG. 6
Method: Bone resorption studies were carried out in neonatal mouse calvariae as described previously. Mice were injected subcutaneously with […] at 2 days of age, and hemicalvariae were dissected out four days later. Hemicalvariae were pre-incubated for 24 hours in medium 199 with 0.1% bovine serum albumin, then changed to fresh medium containing peptide or vehicle. Incubation was continued for a further 48 hours. There were 5-7 hemicalvariae in each group.

fetal rat osteoblasts = experiment: Osteoblast proliferation studies (cell counts and [3H]-thymidine incorporation) in osteoblast-like cell culture; format: cell-based; details: for effect on osteoblast cell number / effect on thymidine incorporation / proliferative effect on osteoblasts: 10^−9 M; for effect on osteoblast cell number: 24 h incubation; for effect on osteoblast cell number / effect on thymidine incorporation: FIG. 1; for effect on thymidine incorporation: last two hours of 24 h incubation; for EC50: read-out: half-maximally effective concentration on cell number; for proliferative effect on osteoblasts: cell number and thymidine incorporation; for blocking of the effects of amylin-(1-8) on osteoblast proliferation: equimolar concentrations; for blocking of the action of intact amylin on cell number / blocking of the action of intact amylin on thymidine incorporation: equimolar concentrations (10^−9 M), FIG. 5, FIG. 9; for concentration that completely blocked the proliferative effect of intact amylin: intact amylin 10^−9 M, cell number, FIG. 4
Method: Osteoblasts were isolated by collagenase-digestion from 20-day fetal rat calvariae. Calvariae were dissected aseptically and the frontal and parietal bones were stripped of their periosteum. only the central portions of the bones, free from sutrue tissue, were collected. The calvariae were treated twice with phosphate buffered saline (PBS) containing 3 mM EDTA (pH 7.4) for 15 minutes at 37E C. in a shaking water bath. After washing once in PBS, the calvariae were treated twice with 3 ml of 1 mg/ml collagenase for 7 minutes at 37E C. After discarding the supernatants from digestions I and II, the calvariae were treated a further twice with 3 ml of 2 mg/ml collagenase (30 mins, 37E C.). The supernatants of digestions III and IV were pooled, centrifuged, and the cells washed in Dulbecco's modified Eagle's medium (DME) with 10% fetal calf serum (FCS), suspended in further DME/10% FCS and placed in 75 cm^2 flasks. The cells were incubated under 5% CO2 and 95% air at 37E C. Confluence was reached by 5-6 days, at which time the cells were subcultured. After trypsinization using trypsin-EDTA (0.05%/0.53 mM), the cells were rinsed in minimum essential medium (MEM) with 5% FCS and resuspended in fresh medium, the seeded at 5×10^4 cells/ml in 24-well plates (0.5 ml cell suspension per well, i.e. 2.5×10^4 cells/well).
Proliferation studies (cell counts and thymidine incorporation) were performed in subconfluent cell populations, 24 h after subculturing cells were changed to serum-free medium with 0.1% bovine serum albumin plus the experimental compounds. Cell numbers were analysed 24 hours after addition of the peptide or vehicle by detaching cells form the wells by exposure to trypsin/EDTA (0.05%/0.53 mM) for approximately 5 minutes at 37E C. Counting was performed in a hemocytometer chamber. Results are expressed per well. [^3H]-Thymidine incorporation into actively-growing and growth-arrested cells was assessed by pulsing the cells with [^3H]-thymidine ([…]) two hours before the end of the experimental incubation. Experiments were terminated at 24 hours by washing the cells in MEM followed by the addition of 10% trichloroacetic acid. The precipitate was washed twice with ethanol:ether (3:1) and the wells desiccated at room temperature. The residue was redissolved in 2 M KOH at 55E C. for 30 mins, neutralized with 1 M HCI, and an aliquot counted for radioactivity. Results are expressed as dpm per well. For cell counts and thymidine incorporation, each experiment was performed at least four different times using experimental groups consisting of at least six wells.

osteoblasts = details: background section; cited from earlier work
[2] = listed as amylin (1-8) with 2 to 7 disulphide bond removed

Compound	effect of pre-incubation for two hours on osteoblastic activity [1]	osteoblastic activity after pre-incubation for four or more hours [1]	effect on basal bone resorption (neonatal mouse calvariae)	effect on osteoblast cell number (fetal rat osteoblasts)	effect on thymidine incorporation (fetal rat osteoblasts)	EC50 (fetal rat osteoblasts; 24 h, FIG. 2) [nM]	proliferative effect on osteoblasts (fetal rat osteoblasts)	blocking of the action of intact amylin on cell number (fetal rat osteoblasts)	blocking of the action of intact amylin on thymidine incorporation (fetal rat osteoblasts)	ability to block amylin's stimulation of osteoblast proliferation after pre-incubation [1]	concentration that completely blocked the proliferative effect of intact amylin (fetal rat osteoblasts)	other results
Amylin: 37-amino acid peptide co-secreted with insulin from the beta cells of the pancreatic islets; rat amylin used	no effect	completely lost their activity	inhibited basal bone resorption	significant increase	significant increase	0.02	–	–	–	–	–	concentrations giving dose-dependent stimulation of osteoblast proliferation (osteoblasts): ≥ 10^−11 M
Reduced amylin (1-8): amylin (1-8) reduced with dithiothreitol, 2 to 7 disulphide bond removed (KCNTATCA; Islet amyloid polypeptide reduced, disulphide removed; UniProt P12969 38-45, looked up, fragment)	–	–	–	–	–	–	no proliferative effect	effective blocker	effective blocker	–	–	blocking of amylin's inhibition of bone resorption (neonatal mouse calvariae; with amylin): did not act as a blocker; proliferative effect on osteoblasts (fetal rat osteoblasts; [2]): inactive; blocking of the effects of amylin-(1-8) on osteoblast proliferation (fetal rat osteoblasts): effective blocker; blocking of the effects of amylin-(1-8) on osteoblast proliferation (fetal rat osteoblasts; [2]): blocks the activity of amylin (1-8)
C[C@H](NC(=O)[C@@H]1CSSC[C@H](NC(=O)[C@@H](N)CCCCN)C(=O)N[C@@H](CC(N)=O)C(=O)N[C@@H]([C@@H](C)O)C(=O)N[C@@H](C)C(=O)N[C@@H]([C@@H](C)O)C(=O)N1)C(N)=O [Amylin-(1-8), Lysine-c[cysteine-asparagine-threonine-alanine-threonine-cysteine]-alanine-NH2] (H-KCNTATCA-NH2; disulfide 2-7)	no effect	completely lost their activity	lack of effect	consistently stimulated	consistently stimulated	0.24	–	–	–	–	–	effect on bone resorption, multiple additions (neonatal mouse calvariae; additions at 0, 8 and 30 hours, data not shown): did not influence bone resorption; effect on osteoblast cell number (fetal rat osteoblasts; listed as (1-8) fragment): stimulated both indices; effect on thymidine incorporation (fetal rat osteoblasts; listed as (1-8) fragment): stimulated both indices; concentrations at which the maximal effect on cell number was seen (fetal rat osteoblasts; 24 h, FIG. 2): ≥ 10^−9 M; maximal effect on cell number compared with intact amylin (fetal rat osteoblasts; 24 h, FIG. 2): not significantly less than that produced by the intact molecule; proliferative effect on osteoblasts (fetal rat osteoblasts; listed as Amylin (1-8)): active; proliferative effect on osteoblasts (fetal rat osteoblasts; listed as amylin-(1-8)): stimulates osteoblast proliferation
Amylin-(8-37): rat amylin fragment 8-37; functions as an amylin antagonist in other tissues	–	–	–	–	–	–	–	–	–	decreased their ability to block	≥ 10^−10 M	–
Reduced Amylin: Rat amylin reduced with dithiothreitol (2-7 disulphide removed)	–	–	–	–	–	–	no proliferative effect	effective blockers	effective blockers	decreased their ability to block	–	–
CGRP-(8-37): the comparable (8-37) peptide fragment from CGRP (calcitonin gene-related peptide) (VTHRLAGLLSRSGGVVKNNFVPTNVGSKAF; ends and bridges not checked)	–	–	–	–	–	–	–	–	–	–	> 10^−8 M	–
